ChEMBL document CHEMBL5126573, “Scaffold modifications to the 4-(4,4-dimethylpiperidinyl) 2,6-dimethylpyridinyl class of HIV-1 allosteric integrase inhibitors” (Bioorg Med Chem, 2022)

Tests used:
[1] = Metabolic stability in rat liver microsomes assessed as half life; format: ADME, Microsome
[2] = Toxicity in rat H4-II-E cells assessed as fold change in lipid droplet formation at 10 uM incubated for 72 hrs boron-dipyrromethene staining based by high content screening (HCS) fluorescence analysis relative to control; format: cell-based
[3] = Toxicity in human Huh-7 cells assessed as fold change in lipid droplet formation at 10 uM incubated for 72 hrs boron-dipyrromethene staining based by high content screening (HCS) fluorescence analysis relative to control; format: cell-based; settings: huh-7, 72 h
[4] = AUC (0 to infinity) in Sprague-Dawley rat at 5 mg/kg, po; format: ADME, organism-based; set-up: time infinity, dose 5 mg/kg, route po; settings: in vivo
[5] = Cytotoxicity against human MT2 cells infected with HIV1 NLRep-Rluc harbouring polymorphic 124T/125T integrase; format: toxicity, cell-based; settings: MT2 cells infected with HIV-1 NLRep-Rluc
[6] = Metabolic stability in human liver microsomes assessed as half life; format: ADME, Microsome
[7] = Metabolic stability in Sprague-Dawley rat assessed as clearance at 1 mg/kg, iv; format: ADME, organism-based; settings: in vivo
[8] = Oral bioavailability in Sprague-Dawley rat at 5 mg/kg; format: ADME, organism-based; settings: in vivo
[9] = system: Human immunodeficiency virus 1; experiment: Antiviral activity against recombinant HIV1 NLRep-Rluc harbouring polymorphic 124A/125A integrase infected in human MT2 cells assessed as inhibition of virus growth in presence of fetal bovine serum by measuring luciferase activity after 5 days by Luciferase Assay; format: functional, organism-based; settings: Human immunodeficiency virus 1, NLRep-Rluc, MT2, 120 h
[10] = system: Human immunodeficiency virus 1; experiment: Antiviral activity against recombinant HIV1 NLRep-Rluc harbouring polymorphic 124T/125T integrase infected in human MT2 cells assessed as inhibition of virus growth in presence of fetal bovine serum by measuring luciferase activity after 5 days by Luciferase Assay; format: functional, organism-based; settings: Human immunodeficiency virus 1, NLRep-Rluc, MT2, 120 h
[11] = Permeability of the compound at pH 7.4 by PAMPA assay; format: ADME; settings: read-out: permeability
[12] = Permeability of the compound at pH 5.5 by PAMPA assay; format: ADME; settings: read-out: permeability
[13] = system: Human immunodeficiency virus 1; experiment: Antiviral activity against recombinant HIV1 NLRep-Rluc harbouring polymorphic 124N/125A integrase infected in human MT2 cells assessed as inhibition of virus growth in presence of fetal bovine serum by measuring luciferase activity after 5 days by Luciferase Assay; format: functional, organism-based; settings: Human immunodeficiency virus 1, NLRep-Rluc, MT2, 120 h

SMILES	half-life [1]	fold change (FC) [2]	fold change (FC) [3]	AUC(0-inf) [4]	CC50 [5]	half-life [6]	clearance [7]	bioavailability [8]	EC50 [9]	EC50 [10]	Papp [11]	Papp [12]	EC50 [13]
Cc1nc(C)c([C@H](OC(C)(C)C)C(=O)O)c(N2CCC(C)(C)CC2)c1-c1ccc(OCCc2ccc(F)cc2)cc1	> 2 h	4	3.7	14 µM·h	≥ 18200 nM	> 2 h							
Cc1nc2c(-c3ccc4c(c3)CCN(Cc3c(C)cccc3Cl)C4)c(N3CCC(C)(C)CC3)c([C@H](OC(C)(C)C)C(=O)O)c(C)n2n1				3.21 µM·h	≥ 3000 nM		13 mL/min/kg	34%	10.1 nM	6 nM	48.3 ×10⁻⁶ cm/s	35.2 ×10⁻⁶ cm/s	9 nM
Cc1cn2c(C)c([C@H](OC(C)(C)C)C(=O)O)c(N3CCC(C)(C)CC3)c(-c3ccc(OCCc4ccc(F)cc4)cc3)c2n1				0.269 µM·h	≥ 10300 nM	> 2 h	40.7 mL/min/kg	8%	1.6 nM	0.8 nM	43.8 ×10⁻⁶ cm/s	38.7 ×10⁻⁶ cm/s	1.8 nM
Cc1nc2c(-c3ccc4c(c3)CCN(c3ncnc5c3oc3ccccc35)C4)c(N3CCC(C)(C)CC3)c([C@H](OC(C)(C)C)C(=O)O)c(C)n2n1		3.6	3.9	36.3 µM·h	≥ 3000 nM		2.8 mL/min/kg	83%	5.2 nM	3.9 nM	75.2 ×10⁻⁶ cm/s	101 ×10⁻⁶ cm/s	4.5 nM
Cc1c([C@H](OC(C)(C)C)C(=O)O)c(N2CCC(C)(C)CC2)c(-c2ccc3c(c2)CCN(c2ncnc4c2oc2ccccc24)C3)c2nccn12				12.1 µM·h	≥ 3000 nM		1 mL/min/kg	9%	4.5 nM	2.9 nM	66.3 ×10⁻⁶ cm/s		4.6 nM
Cc1c([C@H](OC(C)(C)C)C(=O)O)c(N2CCC(C)(C)CC2)c(-c2ccc(OCCc3ccc(F)cc3)cc2)c2cncn12					≥ 18200 nM				34.1 nM	14.6 nM			41 nM
Cc1c([C@H](OC(C)(C)C)C(=O)O)c(N2CCC(C)(C)CC2)c(-c2ccc(OCCc3ccc(F)cc3)cc2)c2cccn12					≥ 18200 nM				38.2 nM	27.7 nM			32.6 nM
Cc1c([C@H](OC(C)(C)C)C(=O)O)c(N2CCC(C)(C)CC2)c(-c2ccc(OCCc3ccc(F)cc3)cc2)c2nc(C(C)C)cn12					≥ 10300 nM				2.9 nM	1.2 nM			3.1 nM
Cc1c([C@H](OC(C)(C)C)C(=O)O)c(N2CCC(C)(C)CC2)c(-c2ccc(OCCc3ccc(F)cc3)cc2)c2nc(C3CC3)cn12					≥ 10300 nM				10.7 nM	4.2 nM			11.1 nM
Cc1c([C@H](OC(C)(C)C)C(=O)O)c(N2CCC(C)(C)CC2)c(-c2ccc3c(c2)CCN(c2ncnc4c2oc2ccccc24)C3)c2cnnn12		1.3	2.7	21.7 µM·h	≥ 3000 nM		1.9 mL/min/kg	33%	4 nM	3.8 nM	79 ×10⁻⁶ cm/s		6.4 nM
Cc1c([C@H](OC(C)(C)C)C(=O)O)c(N2CCC(C)(C)CC2)c(-c2ccc(OCCc3ccc(F)cc3)cc2)c2nc(CC(C)C)cn12	> 2 h				≥ 10300 nM	> 2 h	44.6 mL/min/kg		3.5 nM	1.2 nM			2.6 nM
Cc1c([C@H](OC(C)(C)C)C(=O)O)c(N2CCC(C)(C)CC2)c(-c2ccc3c(c2)CCN(c2ncnc4c2oc2ccccc24)C3)c2ncnn12				30.7 µM·h	≥ 3000 nM		1.5 mL/min/kg	37%	5 nM	2.9 nM	47.4 ×10⁻⁶ cm/s		5.1 nM
Cc1c([C@H](OC(C)(C)C)C(=O)O)c(N2CCC(C)(C)CC2)c(-c2ccc(OCCc3ccc(F)cc3)cc2)c2ncnn12	> 2 h	1.6	2.7	3.59 µM·h	≥ 18200 nM	> 2 h	11.9 mL/min/kg	28%	4.6 nM	2.4 nM	65.4 ×10⁻⁶ cm/s	160 ×10⁻⁶ cm/s	4 nM
Cc1c([C@H](OC(C)(C)C)C(=O)O)c(N2CCC(C)(C)CC2)c(-c2ccc(OCCc3ccc(F)cc3)cc2)c2cnnn12					≥ 18200 nM				11.5 nM	5.8 nM			14.8 nM
Cc1c([C@H](OC(C)(C)C)C(=O)O)c(N2CCC(C)(C)CC2)c(-c2ccc(OCCc3ccc(F)cc3)cc2)c2nc(C(F)(F)F)cn12					≥ 10300 nM				10.4 nM	5.2 nM			12.4 nM
Cc1c([C@H](OC(C)(C)C)C(=O)O)c(N2CCC(C)(C)CC2)c(-c2ccc(OCCc3ccc(F)cc3)cc2)c2nccn12	> 2 h	1.9	3.3	1.48 µM·h	≥ 10300 nM	> 2 h	12.5 mL/min/kg	13%	1.7 nM	1.1 nM	41 ×10⁻⁶ cm/s	49.8 ×10⁻⁶ cm/s	1.9 nM
Cc1nc2c(-c3ccc(OCCc4ccc(F)cc4)cc3)c(N3CCC(C)(C)CC3)c([C@H](OC(C)(C)C)C(=O)O)c(C)n2n1	> 2 h			2.71 µM·h	≥ 40000 nM	> 2 h	20.1 mL/min/kg	39%	2.2 nM	1.3 nM			2.7 nM
Cc1c([C@H](OC(C)(C)C)C(=O)O)c(N2CCC(C)(C)CC2)c(-c2ccc(OCCc3ccc(F)cc3)cc2)c2nncn12					≥ 18200 nM				15.8 nM	11.9 nM			13.7 nM
Cc1nc2c(C)c(N3CCC(C)(C)CC3)c([C@H](OC(C)(C)C)C(=O)O)c(C)n2n1					≥ 3000 nM				1210 nM	207 nM			540 nM
Cc1c([C@H](OC(C)(C)C)C(=O)O)c(N2CCC(C)(C)CC2)c(-c2ccc(OCCc3ccc(F)cc3)cc2)c2ccnn12					≥ 18200 nM				35.3 nM	12.9 nM			26.3 nM
CCc1cn2c(C)c([C@H](OC(C)(C)C)C(=O)O)c(N3CCC(C)(C)CC3)c(-c3ccc(OCCc4ccc(F)cc4)cc3)c2n1	> 2 h				≥ 10300 nM	> 2 h	57.3 mL/min/kg		1.8 nM	1 nM	34.3 ×10⁻⁶ cm/s		2.4 nM
